This passage reports activity coefficient results from the NIST ThermoML archive (doi:10.1016/j.jct.2004.11.005).

This data set can be described thus: activity coefficient (dimensionless); of the first substance listed, at infinite dilution; xn = mol fraction of the nth substance listed. The conditions noted are these: Liquid, x1 = 0.

Each structure is given as a SMILES string. ± gives the expanded uncertainty stated by the source.

As for `C=CC=C` [1,3-butadiene] + CCC(O)CC, the activity coefficient is, setting by setting: (259.98 K) 3.18 ± 0.1; (270.02 K) 3.03 ± 0.09; (280 K) 2.92 ± 0.09; (290 K) 2.75 ± 0.08; (300 K) 2.63 ± 0.08.
Take `C=CC=C` [1,3-butadiene] + CCCC(C)O: the activity coefficient was determined as 3.01 ± 0.09 (249.94 K); 2.89 ± 0.09 (269.98 K); 2.68 ± 0.08 (290 K); 2.47 ± 0.07 (310 K); 2.27 ± 0.07 (330 K).
On to `C=CC=C` [1,3-butadiene] + CCCCCO, for which the activity coefficient was determined as 2.5 ± 0.08 (249.97 K); 2.51 ± 0.08 (270.01 K); 2.5 ± 0.08 (290 K); 2.46 ± 0.07 (310 K); 2.33 ± 0.07 (330 K).
For `C=CCC` [1-butene] + CCC(O)CC, the activity coefficient turned out to be 3.27 ± 0.1 (259.96 K); 3.16 ± 0.09 (270.02 K); 3.05 ± 0.09 (280 K); 2.96 ± 0.09 (290 K); 2.86 ± 0.09 (300 K); 2.72 ± 0.08 (310.01 K). For the same molecule, the activity coefficient (320 K) was found to be 2.61 ± 0.08 and the activity coefficient (330 K) amounted to 2.49 ± 0.07.
For `C=CCC` [1-butene] + CCCC(C)O, the activity coefficient is 3.04 ± 0.09 (249.94 K); 3.03 ± 0.09 (269.99 K); 2.86 ± 0.09 (290 K); 2.69 ± 0.08 (310 K); 2.5 ± 0.08 (330 K).
For the molecule `C=CCC` [1-butene] + CCCCCO, the activity coefficient worked out at 2.88 ± 0.09 (249.96 K); 2.87 ± 0.09 (269.99 K); 2.82 ± 0.08 (290 K); 2.78 ± 0.08 (310 K); 2.7 ± 0.08 (330 K).
Regarding `CC(C)C` [2-methylpropane] + CCC(O)CC, the activity coefficient (259.96 K) was 3.66 ± 0.11; the activity coefficient (270.02 K) is 3.62 ± 0.11; the activity coefficient (280 K) is 3.53 ± 0.11; the activity coefficient (290 K) worked out at 3.45 ± 0.1; the activity coefficient (300 K) was determined as 3.35 ± 0.1; the activity coefficient (310.01 K) was 3.22 ± 0.1. For the same molecule, the activity coefficient stood at 3.09 ± 0.09 (320 K) and 2.98 ± 0.09 (330.01 K).
In the case of `CC(C)C` [2-methylpropane] + CCCC(C)O, the activity coefficient runs as follows: (250.01 K) 3.66 ± 0.11; (269.96 K) 3.61 ± 0.11; (290 K) 3.49 ± 0.1; (310 K) 3.3 ± 0.1; (330 K) 3.1 ± 0.09.
On to `CC(C)C` [2-methylpropane] + CCCCCO, for which the activity coefficient was found to be 3.65 ± 0.11 (249.97 K); 3.59 ± 0.11 (270.01 K); 3.56 ± 0.11 (290 K); 3.51 ± 0.11 (310 K); 3.4 ± 0.1 (330 K).
On to `C=C(C)C` [2-methylpropene] + CCC(O)CC, for which the activity coefficient (259.96 K) was 3.25 ± 0.1; the activity coefficient (270.02 K) came out at 3.15 ± 0.09; the activity coefficient (280 K) came out at 3.04 ± 0.09; the activity coefficient (290 K) came out at 2.93 ± 0.09; the activity coefficient (300 K) was 2.82 ± 0.08; the activity coefficient (310.01 K) is 2.69 ± 0.08. Further, the activity coefficient runs as follows: (320 K) 2.56 ± 0.08; (330.01 K) 2.43 ± 0.07.
On to `C=C(C)C` [2-methylpropene] + CCCC(C)O, for which the activity coefficient reads like this: (249.94 K) 3.1 ± 0.09; (269.98 K) 2.99 ± 0.09; (290 K) 2.82 ± 0.08; (310 K) 2.63 ± 0.08; (330 K) 2.45 ± 0.07.
As for `C=C(C)C` [2-methylpropene] + CCCCCO, the activity coefficient (249.97 K) was 2.86 ± 0.09; the activity coefficient (270.01 K) was 2.84 ± 0.09; the activity coefficient (290 K) is 2.82 ± 0.08; the activity coefficient (310 K) was 2.76 ± 0.08; the activity coefficient (330 K) came to 2.63 ± 0.08.
As to `C/C=C/C` [(E)-2-butene] + CCC(O)CC, the activity coefficient was 3.12 ± 0.09 (259.96 K); 3.06 ± 0.09 (270.02 K); 2.96 ± 0.09 (280 K); 2.88 ± 0.09 (290 K); 2.77 ± 0.08 (300 K); 2.67 ± 0.08 (310.01 K). For the same molecule, the activity coefficient reads like this: (320 K) 2.54 ± 0.08; (330.01 K) 2.5 ± 0.08.
For `C/C=C/C` [(E)-2-butene] + CCCC(C)O, the activity coefficient (249.94 K) came to 2.9 ± 0.09; the activity coefficient (269.99 K) was found to be 2.91 ± 0.09; the activity coefficient (290 K) turned out to be 2.81 ± 0.08; the activity coefficient (310 K) amounted to 2.65 ± 0.08; the activity coefficient (330 K) was 2.49 ± 0.07.
With `C/C=C/C` [(E)-2-butene] + CCCCCO, the activity coefficient (249.96 K) amounted to 2.8 ± 0.08; the activity coefficient (269.99 K) was 2.8 ± 0.08; the activity coefficient (290 K) came to 2.76 ± 0.08; the activity coefficient (310 K) worked out at 2.76 ± 0.08; the activity coefficient (330 K) stood at 2.69 ± 0.08.
In the case of `CCCC` [butane] + CCC(O)CC, the activity coefficient reads like this: (259.98 K) 3.48 ± 0.1; (270.02 K) 3.4 ± 0.1; (280 K) 3.36 ± 0.1; (290 K) 3.26 ± 0.1; (300 K) 3.15 ± 0.09; (310.01 K) 3.04 ± 0.09. The activity coefficient reads like this: (320 K) 2.92 ± 0.09; (330.01 K) 2.79 ± 0.08.
Regarding `CCCC` [butane] + CCCC(C)O, the activity coefficient came to 3.4 ± 0.1 (249.93 K); 3.38 ± 0.1 (269.96 K); 3.24 ± 0.1 (290 K); 3.11 ± 0.09 (310 K); 2.94 ± 0.09 (330 K).
Take `CCCC` [butane] + CCCCCO: the activity coefficient came to 3.43 ± 0.1 (249.97 K); 3.33 ± 0.1 (270.01 K); 3.31 ± 0.1 (290 K); 3.27 ± 0.1 (310 K); 3.19 ± 0.1 (330 K).
For `CCC` [propane] + CCC(O)CC, the activity coefficient was determined as 3.27 ± 0.1 (259.96 K); 3.21 ± 0.1 (270.02 K); 3.14 ± 0.09 (280 K); 3.09 ± 0.09 (290 K); 3.01 ± 0.09 (300 K); 2.9 ± 0.09 (310.01 K). Besides, the activity coefficient (320 K) was found to be 2.81 ± 0.08 and the activity coefficient (330 K) turned out to be 2.72 ± 0.08.
In the case of `CCC` [propane] + CCCCCO, the activity coefficient turned out to be 3.08 ± 0.09 (249.96 K); 3.07 ± 0.09 (269.99 K); 3.08 ± 0.09 (290 K); 3.05 ± 0.09 (310 K); 3 ± 0.09 (330 K).
In the case of `C=CC` [propene] + CCC(O)CC, the activity coefficient amounted to 2.97 ± 0.09 (259.94 K); 2.87 ± 0.09 (270.02 K); 2.82 ± 0.08 (280 K); 2.74 ± 0.08 (290 K); 2.63 ± 0.08 (300 K); 2.53 ± 0.08 (310.01 K). In addition, the activity coefficient turned out to be 2.42 ± 0.07 (320 K) and 2.32 ± 0.07 (330.01 K).
For the molecule `C=CC` [propene] + CCCC(C)O, the activity coefficient is, setting by setting: (249.93 K) 2.79 ± 0.08; (269.99 K) 2.77 ± 0.08; (290 K) 2.66 ± 0.08; (310 K) 2.53 ± 0.08; (330 K) 2.37 ± 0.07.
Turning to `C=CC` [propene] + CCCCCO, the activity coefficient worked out at 2.59 ± 0.08 (249.96 K); 2.59 ± 0.08 (269.99 K); 2.6 ± 0.08 (290 K); 2.59 ± 0.08 (310 K); 2.51 ± 0.08 (330 K).
